Reference: the supplement of paper PMC4862054

Tested on: HCC1937
Assay: normalised viability (% of control), CellTiter-Blue; higher = more viable cells (about 100 = DMSO control)
Details: 10 nM; incubation time: 72 h
How it was run: (§1)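 Vehicle (100) and a positive kill control (0) anchored the normalisation of each plate, and Z'-factor was used for quality control. Breast cancer cell lines in 20 µl suspension were incubated 72 h over compound in 5 µl medium in 384-well plates, followed by CellTiter-Blue at 560/590 nm. The value is normalised viability at a single listed concentration of the series.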

Compared with `Cc1cc(Nc2cc(CN3CCOCC3)c3nc(C)c(Cc4ccc(Cl)cc4F)n3n2)n[nH]1`, `Nc1cc(C(F)(F)F)c(-c2cc(N3CCOCC3)nc(N3CCOCC3)n2)cn1` [BKM-120] is higher in normalised viability: 80.4% for the first, 121% for the second.

Compared with `N#Cc1ccc(COC[C@H]2O[C@@H](n3c(NCc4ccc(Cl)c(Cl)c4)nc4c(N)ncnc43)[C@H](O)[C@@H]2O)cc1`, `COc1cc(OC2CCN(C)CC2)ccc1Nc1ncc2c(n1)n(C1CCCC1)c(=O)n2C` [AZ 3146] is lower in normalised viability: 135% for the first, 124% for the second.

Going from `CN(C)c1nc(N(C)C)nc(N(C)C)n1` [Altretamine] to `C=C1C[C@@H]2[C@H](CC[C@]3(C)C(=O)CC[C@@H]23)[C@@]2(C)C=CC(=O)C=C12` [Exemestane], the normalised viability falls from 100% to 87.7%.

First: COC(=O)c1ccc2c(c1)NC(=O)/C2=C(\Nc1ccc(N(C)C(=O)CN2CCN(C)CC2)cc1)c1ccccc1 [BIBF 1120]
Second: O=C(/C=C/c1cccc(S(=O)(=O)Nc2ccccc2)c1)NO [Belinostat]
The normalised viability of the first is higher: 144% for the first, 46.4% for the second.

Same assay, conditions: 40 nM; incubation time: 72 h

`O=P1(N(CCCl)CCCl)NCCCO1` (stereo not given) [Cyclophosphamide] was tested, and the normalised viability was 98.3%.

Same assay, conditions: 1000 nM; incubation time: 72 h

Going from `Cc1cc(Nc2cc(CN3CCOCC3)c3nc(C)c(Cc4ccc(Cl)cc4F)n3n2)n[nH]1` to `Nc1cc(C(F)(F)F)c(-c2cc(N3CCOCC3)nc(N3CCOCC3)n2)cn1` [BKM-120], the normalised viability rises from 64.7% to 87.9%.

First: N#Cc1ccc(COC[C@H]2O[C@@H](n3c(NCc4ccc(Cl)c(Cl)c4)nc4c(N)ncnc43)[C@H](O)[C@@H]2O)cc1
Second: COc1cc(OC2CCN(C)CC2)ccc1Nc1ncc2c(n1)n(C1CCCC1)c(=O)n2C [AZ 3146]
The normalised viability of the first is lower: 78.5% for the first, 98% for the second.

First: CN(C)c1nc(N(C)C)nc(N(C)C)n1 [Altretamine]
Second: C=C1C[C@@H]2[C@H](CC[C@]3(C)C(=O)CC[C@@H]23)[C@@]2(C)C=CC(=O)C=C12 [Exemestane]
The normalised viability of the first is higher: 96.3% for the first, 88.3% for the second.

First: COC(=O)c1ccc2c(c1)NC(=O)/C2=C(\Nc1ccc(N(C)C(=O)CN2CCN(C)CC2)cc1)c1ccccc1 [BIBF 1120]
Second: O=C(/C=C/c1cccc(S(=O)(=O)Nc2ccccc2)c1)NO [Belinostat]
The normalised viability of the first is higher: 130% for the first, 41.4% for the second.

Same assay, conditions: 4000 nM; incubation time: 72 h

`O=P1(N(CCCl)CCCl)NCCCO1` (stereo not given) [Cyclophosphamide] was tested, and the normalised viability was 111%.

Same assay, conditions: 10000 nM; incubation time: 72 h

Compared with `Cc1cc(Nc2cc(CN3CCOCC3)c3nc(C)c(Cc4ccc(Cl)cc4F)n3n2)n[nH]1`, `Nc1cc(C(F)(F)F)c(-c2cc(N3CCOCC3)nc(N3CCOCC3)n2)cn1` [BKM-120] is lower in normalised viability: 44% for the first, 13.7% for the second.

Compared with `N#Cc1ccc(COC[C@H]2O[C@@H](n3c(NCc4ccc(Cl)c(Cl)c4)nc4c(N)ncnc43)[C@H](O)[C@@H]2O)cc1`, `COc1cc(OC2CCN(C)CC2)ccc1Nc1ncc2c(n1)n(C1CCCC1)c(=O)n2C` [AZ 3146] is higher in normalised viability: 71.8% for the first, 92% for the second.

Compared with `CN(C)c1nc(N(C)C)nc(N(C)C)n1` [Altretamine], `C=C1C[C@@H]2[C@H](CC[C@]3(C)C(=O)CC[C@@H]23)[C@@]2(C)C=CC(=O)C=C12` [Exemestane] is lower in normalised viability: 88.6% for the first, 87.8% for the second.

Compared with `COC(=O)c1ccc2c(c1)NC(=O)/C2=C(\Nc1ccc(N(C)C(=O)CN2CCN(C)CC2)cc1)c1ccccc1` [BIBF 1120], `O=C(/C=C/c1cccc(S(=O)(=O)Nc2ccccc2)c1)NO` [Belinostat] is lower in normalised viability: 84% for the first, 15.1% for the second.

Same assay, conditions: 40000 nM; incubation time: 72 h

`O=P1(N(CCCl)CCCl)NCCCO1` (stereo not given) [Cyclophosphamide] was tested, and the normalised viability was 98.5%.

Tested on: HDQ-P1
Assay: as above
Details: 3 nM; incubation time: 72 h
How it was run: as §1

First: Cc1cc(Nc2cc(CN3CCOCC3)c3nc(C)c(Cc4ccc(Cl)cc4F)n3n2)n[nH]1
Second: Nc1cc(C(F)(F)F)c(-c2cc(N3CCOCC3)nc(N3CCOCC3)n2)cn1 [BKM-120]
The normalised viability of the first is lower: 89.9% for the first, 97.8% for the second.

Going from `N#Cc1ccc(COC[C@H]2O[C@@H](n3c(NCc4ccc(Cl)c(Cl)c4)nc4c(N)ncnc43)[C@H](O)[C@@H]2O)cc1` to `COc1cc(OC2CCN(C)CC2)ccc1Nc1ncc2c(n1)n(C1CCCC1)c(=O)n2C` [AZ 3146], the normalised viability falls from 115% to 80.8%.

First: CN(C)c1nc(N(C)C)nc(N(C)C)n1 [Altretamine]
Second: C=C1C[C@@H]2[C@H](CC[C@]3(C)C(=O)CC[C@@H]23)[C@@]2(C)C=CC(=O)C=C12 [Exemestane]
The normalised viability of the first is higher: 107% for the first, 94.5% for the second.

First: COC(=O)c1ccc2c(c1)NC(=O)/C2=C(\Nc1ccc(N(C)C(=O)CN2CCN(C)CC2)cc1)c1ccccc1 [BIBF 1120]
Second: O=C(/C=C/c1cccc(S(=O)(=O)Nc2ccccc2)c1)NO [Belinostat]
The normalised viability of the first is higher: 124% for the first, 90.4% for the second.

Same assay, conditions: 12 nM; incubation time: 72 h

Work on `O=P1(N(CCCl)CCCl)NCCCO1` (stereo not given) [Cyclophosphamide] yielded a normalised viability of 119%.

Same assay, conditions: 30 nM; incubation time: 72 h

Going from `Cc1cc(Nc2cc(CN3CCOCC3)c3nc(C)c(Cc4ccc(Cl)cc4F)n3n2)n[nH]1` to `Nc1cc(C(F)(F)F)c(-c2cc(N3CCOCC3)nc(N3CCOCC3)n2)cn1` [BKM-120], the normalised viability rises from 82% to 107%.

First: N#Cc1ccc(COC[C@H]2O[C@@H](n3c(NCc4ccc(Cl)c(Cl)c4)nc4c(N)ncnc43)[C@H](O)[C@@H]2O)cc1
Second: COc1cc(OC2CCN(C)CC2)ccc1Nc1ncc2c(n1)n(C1CCCC1)c(=O)n2C [AZ 3146]
The normalised viability of the first is higher: 104% for the first, 100% for the second.

First: CN(C)c1nc(N(C)C)nc(N(C)C)n1 [Altretamine]
Second: C=C1C[C@@H]2[C@H](CC[C@]3(C)C(=O)CC[C@@H]23)[C@@]2(C)C=CC(=O)C=C12 [Exemestane]
The normalised viability of the first is lower: 92.7% for the first, 98.5% for the second.

Going from `COC(=O)c1ccc2c(c1)NC(=O)/C2=C(\Nc1ccc(N(C)C(=O)CN2CCN(C)CC2)cc1)c1ccccc1` [BIBF 1120] to `O=C(/C=C/c1cccc(S(=O)(=O)Nc2ccccc2)c1)NO` [Belinostat], the normalised viability falls from 117% to 90.8%.

Same assay, conditions: 100 nM; incubation time: 72 h

First: Cc1cc(Nc2cc(CN3CCOCC3)c3nc(C)c(Cc4ccc(Cl)cc4F)n3n2)n[nH]1
Second: Nc1cc(C(F)(F)F)c(-c2cc(N3CCOCC3)nc(N3CCOCC3)n2)cn1 [BKM-120]
The normalised viability of the first is lower: 82.4% for the first, 97.7% for the second.

Going from `N#Cc1ccc(COC[C@H]2O[C@@H](n3c(NCc4ccc(Cl)c(Cl)c4)nc4c(N)ncnc43)[C@H](O)[C@@H]2O)cc1` to `COc1cc(OC2CCN(C)CC2)ccc1Nc1ncc2c(n1)n(C1CCCC1)c(=O)n2C` [AZ 3146], the normalised viability rises from 105% to 118%.

Going from `CN(C)c1nc(N(C)C)nc(N(C)C)n1` [Altretamine] to `C=C1C[C@@H]2[C@H](CC[C@]3(C)C(=O)CC[C@@H]23)[C@@]2(C)C=CC(=O)C=C12` [Exemestane], the normalised viability falls from 112% to 97.1%.

First: COC(=O)c1ccc2c(c1)NC(=O)/C2=C(\Nc1ccc(N(C)C(=O)CN2CCN(C)CC2)cc1)c1ccccc1 [BIBF 1120]
Second: O=C(/C=C/c1cccc(S(=O)(=O)Nc2ccccc2)c1)NO [Belinostat]
The normalised viability of the first is higher: 124% for the first, 72.5% for the second.

Same assay, conditions: 120 nM; incubation time: 72 h

For `O=P1(N(CCCl)CCCl)NCCCO1` (stereo not given) [Cyclophosphamide], the normalised viability was 109%.

Same assay, conditions: 400 nM; incubation time: 72 h

With `O=P1(N(CCCl)CCCl)NCCCO1` (stereo not given) [Cyclophosphamide] the normalised viability was 104%.

Tested on: Hs578T
Assay: as above
Details: 10 nM; incubation time: 72 h
How it was run: as §1

Compared with `Cc1cc(Nc2cc(CN3CCOCC3)c3nc(C)c(Cc4ccc(Cl)cc4F)n3n2)n[nH]1`, `Nc1cc(C(F)(F)F)c(-c2cc(N3CCOCC3)nc(N3CCOCC3)n2)cn1` [BKM-120] is higher in normalised viability: 110% for the first, 114% for the second.

Compared with `N#Cc1ccc(COC[C@H]2O[C@@H](n3c(NCc4ccc(Cl)c(Cl)c4)nc4c(N)ncnc43)[C@H](O)[C@@H]2O)cc1`, `COc1cc(OC2CCN(C)CC2)ccc1Nc1ncc2c(n1)n(C1CCCC1)c(=O)n2C` [AZ 3146] is higher in normalised viability: 104% for the first, 111% for the second.

Going from `CN(C)c1nc(N(C)C)nc(N(C)C)n1` [Altretamine] to `COC(=O)c1ccc2c(c1)NC(=O)/C2=C(\Nc1ccc(N(C)C(=O)CN2CCN(C)CC2)cc1)c1ccccc1` [BIBF 1120], the normalised viability falls from 107% to 102%.
